Laboratory results: patent US20130072533A1, “COMPOUNDS WITH BOTH ANALGESIC AND ANTI-HYPERALGESIC EFFICACY” (priority 2010, published 2013)
Counter-ions that a name gives are not always drawn.

How the values were obtained:
[1] = tested on: spontaneous motility and exploratory activity of the mouse; assay: Hole-board test; assay type: in vivo
Source text: (§1) In particular, in the case of the rotarod, the number of falls from the rotating rod progressively decreases with repeated falls. This confirms that the observed anti-hyperalgesic effects are not due to a change in the animal's behaviour.

[2] = tested on: osteoarthritis induced pain (MIA) in the rat; assay: Paw pressure test, osteoarthritis induced pain (intra-articular monosodium iodoacetate); assay type: in vivo; conditions: for PAW PRESSURE, AFTER TREATMENT (15 min) / PAW PRESSURE, AFTER TREATMENT 30 min / PAW PRESSURE, Pre-test: MIA rats
Method: At the same doses of 10 and 30 mg kg^−1 per os, the racemic mixture under study was also found to be effective in reversing the pain threshold reduction induced by the intra-articular Injection of monoiodide acetate at a dose of 2 mg in a 25 μl volume (osteoarthritis model). In this case the effect is statistically significant up to 45 minutes after administration at the lower dose and up to 60 minutes at the three-fold dose.

[3] = tested on: motor coordination of the mouse; assay: Rotarod test; assay type: in vivo
Source text: as §1

[4] = tested on: oxaliplatin induced hyperalgesia in the rat; assay: Paw pressure test, oxaliplatin-induced hyperalgesia; assay type: in vivo; conditions: oxaliplatin rats
[5] = tested on: acetic acid induced writhes in mice; assay: Abdominal writhing test (acetic acid 0.6%); assay type: in vivo, mouse
Method: The 10 mg kg^−1 per os dose was also found to be effective.

[6] = tested on: pain threshold of the mouse; assay: Hot plate test (acute thermal stimulus); assay type: in vivo; conditions: for HOT PLATE TEST, 15 min / HOT PLATE TEST, 30 min / HOT PLATE TEST, 45 min / HOT PLATE TEST, 60 min / HOT PLATE TEST, Pre-test: mice
[7] = tested on: hyperalgesia induced in the rat by loose ligation of the sciatic nerve; assay: Paw pressure test, rat mononeuropathy (loose ligation of the sciatic nerve); assay type: in vivo
Method: In particular, a racemic mixture of the compounds of formula (I) in the form of sodium salt, in which the stereogenic centre deriving from camosine is in the L configuration, was subjected to in vivo pharmacological tests which have enabled their surprising analgesic effects to be discovered.
The observed effect is greater, albeit slightly, than that obtained by tramadol 100 mg kg^−1 per os and pregabalin 200 mg kg^−1 per os, in the same experimental model.

[8] = 30 mg kg^−1 per os, 30 min before the test

## O=C(CCCCC1CCSS1)NCCC(=O)NC(Cc1cnc[nH]1)C(=O)O (racemic) (as salt: sodium) [Compound 2]
other
  melting point: > 213 °C (dec.)

## O=C(CCCCC1CCSS1)NCCC(=O)NC(Cc1cnc[nH]1)C(=O)O (racemic) [Compound 2]
[1]; 30 mg kg^−1 per os
  change of behavioural parameters: spontaneous motility and exploratory activity (hole-board): does not alter the behavioural parameters
[1]; 30 mg/kg per os, mice
  No. of inspections: 37.8 ± 7.5
  No. of movements: 30.3 ± 7.7
[2]; 10 mg/kg p.o.
  PAW PRESSURE, AFTER TREATMENT (15 min): 49.3 ± 2.5 g
  PAW PRESSURE, AFTER TREATMENT 30 min: 45.3 ± 3.9 g
  PAW PRESSURE, Pre-test: 24.5 ± 2.1 g
[2]; 30 mg/kg p.o.
  PAW PRESSURE, AFTER TREATMENT (15 min): 59.1 ± 3.3 g
  PAW PRESSURE, AFTER TREATMENT 30 min: 54.7 ± 3.6 g
  PAW PRESSURE, Pre-test: 24.4 ± 2.5 g
[2]; lower dose (10 mg kg^−1 per os)
  time after administration up to which the effect is statistically significant: up to 45 minutes
[2]; three-fold dose (30 mg kg^−1 per os)
  time after administration up to which the effect is statistically significant: up to 60 minutes
[3]; 30 mg kg^−1 per os
  change of behavioural parameters: motor coordination (rotarod): does not alter the behavioural parameters
[3]; 30 mg/kg per os, mice, 15 min
  FALLS IN 30 SEC, 15 min: 3.9 ± 0.3
[3]; 30 mg/kg per os, mice, 30 min
  FALLS IN 30 SEC, 30 min: 1.3 ± 0.3
[3]; 30 mg/kg per os, mice, 45 min
  FALLS IN 30 SEC, 45 min: 0.8 ± 0.2
[3]; 30 mg/kg per os, mice, pre-test
  FALLS IN 30 SEC, Pre-test: 5.2 ± 0.3
[4]; 10 mg/kg per os
  PAW PRESSURE TEST, AFTER TREATMENT 15 min: 34.6 ± 3.1^ g
  PAW PRESSURE TEST, AFTER TREATMENT 30 min: 36.7 ± 3.5^ g
  PAW PRESSURE TEST, AFTER TREATMENT 45 min: 31.9 ± 3.5 g
  PAW PRESSURE TEST, AFTER TREATMENT 60 min: 26.9 ± 2.8 g
  PAW PRESSURE TEST, Pre-test: 23.8 ± 3.6 g
[4]; 30 mg/kg per os
  PAW PRESSURE TEST, AFTER TREATMENT 15 min: 43.6 ± 3.9 g
  PAW PRESSURE TEST, AFTER TREATMENT 30 min: 48.9 ± 3.6 g
  PAW PRESSURE TEST, AFTER TREATMENT 45 min: 41.6 ± 3.6 g
  PAW PRESSURE TEST, AFTER TREATMENT 60 min: 31.7 ± 3.3 g
  PAW PRESSURE TEST, Pre-test: 22.9 ± 3.5 g
[5]; 1 mg kg^−1 per os, 30 min before the test
  no. of writhes: 28.5 ± 2.8
[5]; 10 mg kg^−1 per os, 30 min before the test
  no. of writhes: 21.8 ± 3.1
[5]; 30 mg kg^−1 per os with naloxone 1 mg kg^−1 i.p. 15 min before
  no. of writhes: 13.6 ± 3.0
[5]; [8]
  no. of writhes: 12.7 ± 2.6
[5]; 30 mg kg^−1 per os, naloxone 1 mg kg^−1 i.p.
  antagonism of the analgesia by naloxone: not antagonized by the opioid antagonist naloxone
[6]; 1 mg/kg per os
  HOT PLATE TEST, 15 min: 18.7 ± 2.7
  HOT PLATE TEST, 30 min: 25.1 ± 2.7
  HOT PLATE TEST, 45 min: 14.0 ± 2.0
  HOT PLATE TEST, 60 min: 15.7 ± 2.6
  HOT PLATE TEST, Pre-test: 15.7 ± 0.8
[6]; 10 mg/kg per os
  HOT PLATE TEST, 15 min: 25.9 ± 2.8
  HOT PLATE TEST, 30 min: 22.3 ± 2.6
  HOT PLATE TEST, 45 min: 19.3 ± 1.9
  HOT PLATE TEST, 60 min: 17.4 ± 0.8
  HOT PLATE TEST, Pre-test: 15.3 ± 0.9
[6]; 30 mg/kg per os
  HOT PLATE TEST, 15 min: 29.7 ± 2.8
  HOT PLATE TEST, 30 min: 26.0 ± 2.7
  HOT PLATE TEST, 45 min: 20.3 ± 2.9
  HOT PLATE TEST, 60 min: 18.7 ± 2.1
  HOT PLATE TEST, Pre-test: 15.7 ± 1.3
[6]; dose range between 1 and 30 mg kg^−1 per os
  rise of the pain threshold: able to raise the pain threshold in a dose-dependent manner
[7]; 10 mg/kg per os
  onset of the effect after administration: 15 min
  time up to which the effect remained unchanged: up to 45 minutes
[7]; 10 mg/kg per os, left paw
  PAW PRESSURE, AFTER TREATMENT (15 min): 69.5 ± 4.4 g
  PAW PRESSURE, BEFORE TREATMENT: 61.9 ± 3.4 g
[7]; 10 mg/kg per os, ligation 14 days earlier
  reversal of hyperalgesia: able to reverse, in a statistically significant manner
[7]; 10 mg/kg per os, right paw
  PAW PRESSURE, AFTER TREATMENT (15 min): 48.3 ± 3.5 g
  PAW PRESSURE, BEFORE TREATMENT: 25.2 ± 3.3 g
[7]; 30 mg/kg per os, left paw
  PAW PRESSURE, AFTER TREATMENT (15 min): 81.6 ± 3.1 g
  PAW PRESSURE, BEFORE TREATMENT: 59.2 ± 3.8 g
[7]; 30 mg/kg per os, right paw
  PAW PRESSURE, AFTER TREATMENT (15 min): 66.3 ± 3.3 g
  PAW PRESSURE, BEFORE TREATMENT: 24.8 ± 3.2 g

## CC(C)Cc1ccc(C(C)C(=O)O)cc1 (stereo not drawn) [IBUPROFEN, ibuprofen, reference compound]
[5]; [8]
  no. of writhes: 20.3 ± 2.2
[5]; 100 mg kg^−1 per os, 30 min before the test
  no. of writhes: 13.5 ± 2.0

## CC(C)C[C@H](CN)CC(=O)O [PREGABALIN, pregabalin, reference compound]
[7]; 200 mg/kg per os, left paw
  PAW PRESSURE, AFTER TREATMENT (15 min): 70.4 ± 3.5 g
  PAW PRESSURE, BEFORE TREATMENT: 57.3 ± 3.5 g
[7]; 200 mg/kg per os, right paw
  PAW PRESSURE, AFTER TREATMENT (15 min): 58.2 ± 3.1 g
  PAW PRESSURE, BEFORE TREATMENT: 26.3 ± 3.0 g

## COc1cccc(C2(O)CCCCC2CN(C)C)c1 (stereo not drawn) [TRAMADOL, tramadol, reference compound]
[7]; 100 mg/kg per os, left paw
  PAW PRESSURE, AFTER TREATMENT (15 min): 72.3 ± 3.0^ g
  PAW PRESSURE, BEFORE TREATMENT: 58.3 ± 3.1 g
[7]; 100 mg/kg per os, right paw
  PAW PRESSURE, AFTER TREATMENT (15 min): 55.8 ± 2.5 g
  PAW PRESSURE, BEFORE TREATMENT: 25.7 ± 2.2 g
